One experiment has as its system MIN6 cell. Description: Glucose-stimulated insulin secretion (GSIS) assay, insulin by ELISA. It is filed as cell-based, mouse. How it is done: In order to examine the influences of the aforementioned extracts and compounds from Antrodia camphorata for insulin secretion, GSIS assay was performed with MIN6 cell. First, MIN6 cell was incubated in 1×10^5/ml concentration in a 24-well plate and a 15% FBS DMEM medium at 37° C., 5% CO2. After cell attachment, 200 mg/1 BSA medium and the extracts and compounds from Antrodia camphorata in different concentrations were added into each well to react for 24 hours. 5.5 mM/16.7 mM glucose was further added as stimulation and then insulin was determined by ELISA. In the same time, total cellular protein in each well was extracted for a calibration by determining protein concentration with BCA assay.

Experiment [1] relates to MIN6 mouse beta insulinoma cell line. The experiment can be described thus: MTT cell viability assay with thapsigargin (TG) challenge. In kind it is cell-based. Conditions: then TG. How it is done: MIN6 mouse beta insulinoma cell line was analyzed by MTT cell viability assay respectively. The MIN6 mouse insulinoma beta cell line is an insulinoma cell line which comes from sarcoma virus 40 transfecting non-obese diabetic mice (NOD mice) by T cells, and is a mouse insulinoma cell line having physiological characteristics of insulinoma beta cell.
MIN6 cell line was cultured in a high glucose DMEM with 15% fetal bovine serum, 50 μmol/L mercaptoethanol, 100 U/ml penicillin, and […] streptomycin. The medium was replaced the next day.
MIN6 cells were prepared for 1×10^5/ml cell liquid suspensions, and then the suspensions were incubated in a 96-well plate with 100 μl in each well. After cell attachment, the medium was replaced with a 0.2% serum medium and then the cells were cultured for 24 hours in order to keep the cells at rest. Then, 200 mg/L BSA medium and the extracts/compounds from Antrodia camphorata with a variety of predetermined concentrations (experimental groups) were added to react for 24 hours, respectively, and then thapsigargin was added to react for 24 hours. A control group was prepared by adding 100 μl medium and then incubating in a constant temperature incubator at 37° C., 5% CO2 for a period of time. 4 hours before the end of the incubating process, 20 μl MTT (0.5 mg/ml) was added into each well, the samples continued being incubated for 4 hours, and then crystalline dissolved fully with vibration. The absorbance (A) at wavelength of 570 nm was determined respectively by a reader. Then the cell viability was calculated by the following formula: the cell viability=(the average of A570 in the experimental group/the average of A570 in the control group)×100%.
Referring to FIG. 1A, the extraction from ANCA-D in different concentrations (6.25, 12.5, 25, 50, 100 ng/ml) was added into cells in each group respectively to react for 24 hours. Then, thapsigargin (TG) was added to react for 24 hours and the cell viability of each group was determined after the reaction. Thapsigargin is an endoplasmic reticulum calcium pump inhibitor which can promote depletion of calcium ions from the endoplasmic reticulum and then open store-operated channels to lead the calcium ions to increase in cells. Then, insulin secretion could be inhibited.
In general terms: Formazan colour is commonly taken as a measure of viable cells.

Take `COC1=C(OC)[C@H](OC(C)=O)[C@H](C/C=C(\C)CC/C=C(\C)CC(O)C=C(C)C)[C@@H](C)C1=O` (stereo partly shown) [Antrocamol LT2, 4-acetoxy-5-[9-hydroxy-3,7,11-trimethyldodeca-2,6,10-trienyl]-2,3-dimethoxy-6-methyl-cyclohex-2-enone]: the “effect of promoting insulin secretion” value in the experiment with MIN6 cell (pretreated with 50 ng/ml, FIG. 3B) is listed as “not observed”. The “insulin secretion relative to control group” value in the experiment with MIN6 cell (pretreated with 100 ng/ml, 5.5 mM/16.7 mM glucose, FIG. 3B) was “about 2 times”. Moreover, the MIN6 cell viability entry is “began to slightly decrease” in experiment [1] (concentration higher than 50 ng/ml, FIG. 2B) and “significantly increase the MIN6 cell viability” in experiment [1] (lower concentrations, especially 6.25~25 ng/ml, compared with only-TG control, FIG. 2B).
Regarding `COC1=C(OC)[C@H](O)[C@H](C/C=C(\C)CC/C=C(\C)C/C=C/C(C)(C)O)[C@@H](C)C1=O` [Antrocamol LT3, (4R,5R,6R)-4-hydroxy-5-[(2E,6E,9E)-11-hydroxy-3,7,11-trimethyldodeca-2,6,9-trienyl]-2,3-dimethoxy-6-methylcyclohex-2-enone], the “effect for promoting insulin secretion” value in the experiment with MIN6 cell (high glucose, FIG. 3B) was “observed in high glucose”; in the experiment with MIN6 cell (low glucose, FIG. 3B), “not low glucose”. In addition, the insulin secretion entry in the experiment on MIN6 cell (pretreated with 250 ng/ml, 5.5 mM/16.7 mM glucose, FIG. 3B) is “slightly tendency for promoting insulin secretion”. Moreover, the MIN6 cell viability entry is “began increasing” in experiment [1] (concentration of 1000 ng/ml, FIG. 2C) and “did not significantly influence the MIN6 cell viability” in experiment [1] (concentrations lower than 500 ng/ml, compared with only-TG group, FIG. 2C).
As for `COC1=C(OC)[C@H](O)[C@H](C/C=C(\C)CC/C=C(\C)CC(O)C=C(C)C)[C@@H](C)C1=O` (stereo partly shown) [Antrocamol LT1, 4-hydroxy-5-[9-hydroxy-3,7,11-trimethyldodeca-2,6,10-trienyl]-2,3-dimethoxy-6-methyl-cyclohex-2-enone], the “insulin secretion relative to control group” value in the experiment on MIN6 cell (pretreated with 500 ng/ml, higher glucose concentration 16.7 mM, FIG. 3C) is recorded as “about 2 times”. Moreover, the insulin secretion result in the experiment with MIN6 cell (pretreated with 500 ng/ml, lower glucose concentration 5.5 mM, FIG. 3C) is reported as “slightly increased”; in the experiment on MIN6 cell (pretreated with 1000 ng/ml and 500 ng/ml, 5.5 mM/16.7 mM glucose, FIG. 3B), “slightly increasing tendency”; with MIN6 cell (pretreated with 1000 ng/ml, higher glucose concentration 16.7 mM, FIG. 3C), “more obvious”; in the experiment on MIN6 cell (pretreated with 1000 ng/ml, lower glucose concentration 5.5 mM, FIG. 3C), “increasing tendency”. For the same compound, the MIN6 cell viability result in experiment [1] (concentrations of 250, 500, and 1000 ng/ml, compared with only-TG control, FIG. 2A) is recorded as “increasing tendency was more significant”; in experiment [1] (pretreated with compound, compared with only-TG control, overall, FIG. 2A), “could increase the MIN6 cell viability”.

These data come from US20160038549A1, “METHOD FOR PROMOTING INSULIN SECRETION BY USING COMPOUNDS AND EXTRACTS ISOLATED FROM ANTRODIA CAMPHORATA” (priority 2014, published 2016).
